Results as given in publication PMC7249047, “Search for ABCB1 Modulators Among 2-Amine-5-Arylideneimidazolones as a New Perspective to Overcome Cancer Multidrug Resistance” (Molecules, 2020).
Counter-ions that a name gives are not always drawn.

Legend:
[1] = Cytotoxicity MTT assay, 24 h, PAR cells; type: cell-based; conditions: mouse, parental (PAR) L5178 mouse T-cell lymphoma cells, read-out: Cytotoxic effect IC50
Experimental: (§1) The cytotoxicity of compounds 7–20 was examined in both aforementioned PAR and MDR mouse T-lymphoma cell lines, using the MTT assay to estimate IC50 values. The selectivity index for cytotoxic action on MDR with respect to PAR cells was calculated (SI, Table 3). […] This range of SI may indicate ABCB1-efflux pump substrate properties for the whole series (7–20), especially distinct in the case of 19 (SI ≤ 0.29), and slightly weaker for 8, 12, 16, and 18.
(§2) L5178 mouse T-cell lymphoma cells (PAR) (ECACC Cat. No. 87111908, obtained from FDA, Silver Spring, MD, USA) were transfected with pHa MDR1/A retrovirus, as previously described by Cornwell et al.. The ABCB1-expressing cell line L5178Y (MDR) was selected by culturing the infected cells with colchicine. The parental L5178 mouse T-cell lymphoma cells and the L5178Y human ABCB1-transfected subline were cultured in McCoy’s 5A medium (Sigma-Aldrich, St Louis, MO, USA) supplemented with 10% heat-inactivated horse serum (Sigma-Aldrich, St Louis, MO, USA), 200 mM L-glutamine (Sigma-Aldrich, St Louis, MO, USA), and a penicillin-streptomycin (Sigma-Aldrich, St Louis, MO, USA) mixture in concentrations of 100 U/L and 10 mg/L, respectively. The cell lines were incubated at 37 °C, in a 5% CO2, 95% air atmosphere.
(§3) Cytotoxicity and antiproliferative assays were performed following the procedure described in the literature. Parental and multidrug-resistant mouse T-lymphoma cells were used to determine the effect of the arylideneimidazolones on the growth of cells. The effects of increasing concentrations of arylideneimidazolones on cell growth were tested in 96-well flat-bottomed microtiter plates. The compounds were diluted in a volume of 100 μL of medium.
(§4) In the case of the mouse T-lymphoma cells, the two-fold serial dilutions were prepared in 100 μL of McCoy’s 5A, horizontally. The parental (PAR) and multidrug-resistant (MDR) mouse T-lymphoma cells were adjusted to a density of 1 × 10^4 cells (for cytotoxic assay) and 6 × 10^3 (for antiproliferative assay) in 100 μL of McCoy’s 5A medium and were added to each well, with the exception of the medium control wells.
(§5) The culture plates were incubated at 37 °C for 24 h (for cytotoxicity assay) and 72 h (for antiproliferative assay); at the end of the incubation period, 20 μL of MTT (thiazolyl blue tetrazolium bromide, Sigma) solution (from a stock solution of 5 mg/mL) were added to each well. After incubation at 37 °C for 4 h, 100 μL of sodium dodecyl sulfate (SDS) (Sigma) solution (10% in 0.01 M HCI) were added to each well and the plates were further incubated at 37 °C overnight. Cell growth was determined by measuring the optical density (OD) at 540/630 nm with a Multiscan EX ELISA reader (Thermo Labsystems, Cheshire, WA, USA).
(§6) Results have been expressed in terms of IC50, defined as the inhibitory dose that reduces the growth of the cells exposed to the tested compounds by 50%, each representing the mean of a minimum of three independent experiments.

[2] = Cytotoxicity MTT assay, 24 h, MDR cells; type: cell-based; conditions: mouse; for IC50 at 24 h: MDR cells, MTT, read-out: Cytotoxic effect IC50; for selectivity ratio at 24 h: cytotoxic action on MDR with respect to PAR cells, read-out: SI (selectivity index), cytotoxicity
Experimental: as §1, §2, §3, §4, §5, §6

[3] = tested on: parental (PAR) mouse T-lymphoma cells; assay: Antiproliferative MTT assay, 72 h, PAR cells; type: cell-based; conditions: read-out: Antiproliferative effect IC50
Experimental: (§7) The ABCB1-expressing cell line L5178Y (MDR) was selected by culturing the infected cells with colchicine. The parental L5178 mouse T-cell lymphoma cells and the L5178Y human ABCB1-transfected subline were cultured in McCoy’s 5A medium (Sigma-Aldrich, St Louis, MO, USA) supplemented with 10% heat-inactivated horse serum (Sigma-Aldrich, St Louis, MO, USA), 200 mM L-glutamine (Sigma-Aldrich, St Louis, MO, USA), and a penicillin-streptomycin (Sigma-Aldrich, St Louis, MO, USA) mixture in concentrations of 100 U/L and 10 mg/L, respectively.
as §3, §4
(§8) Cell growth was determined by measuring the optical density (OD) at 540/630 nm with a Multiscan EX ELISA reader (Thermo Labsystems, Cheshire, WA, USA).

[4] = tested on: multidrug-resistant (MDR) mouse T-lymphoma cells; assay: Antiproliferative MTT assay, 72 h, MDR cells; type: cell-based; conditions: for SI (selectivity index), antiproliferative: MDR with respect to PAR cells; for IC50: Mus musculus, MDR cells, 72 h, MTT, read-out: Antiproliferative effect IC50
Experimental: as §7, §3, §4, §8

ABCB1 efflux pump = ABCB1 efflux pump (Homo sapiens, UniProt P08183); assay: Rhodamine 123 accumulation assay (flow cytometry); conditions: for FAR Quotient (%): FAR of compound related to FAR of VER tested at 20 µM; for FAR (fluorescence activity ratio): rhodamine 123 accumulation, MDR vs PAR mouse T-lymphoma cells
ABCB1 efflux pump, sequence (P08183 whole entry): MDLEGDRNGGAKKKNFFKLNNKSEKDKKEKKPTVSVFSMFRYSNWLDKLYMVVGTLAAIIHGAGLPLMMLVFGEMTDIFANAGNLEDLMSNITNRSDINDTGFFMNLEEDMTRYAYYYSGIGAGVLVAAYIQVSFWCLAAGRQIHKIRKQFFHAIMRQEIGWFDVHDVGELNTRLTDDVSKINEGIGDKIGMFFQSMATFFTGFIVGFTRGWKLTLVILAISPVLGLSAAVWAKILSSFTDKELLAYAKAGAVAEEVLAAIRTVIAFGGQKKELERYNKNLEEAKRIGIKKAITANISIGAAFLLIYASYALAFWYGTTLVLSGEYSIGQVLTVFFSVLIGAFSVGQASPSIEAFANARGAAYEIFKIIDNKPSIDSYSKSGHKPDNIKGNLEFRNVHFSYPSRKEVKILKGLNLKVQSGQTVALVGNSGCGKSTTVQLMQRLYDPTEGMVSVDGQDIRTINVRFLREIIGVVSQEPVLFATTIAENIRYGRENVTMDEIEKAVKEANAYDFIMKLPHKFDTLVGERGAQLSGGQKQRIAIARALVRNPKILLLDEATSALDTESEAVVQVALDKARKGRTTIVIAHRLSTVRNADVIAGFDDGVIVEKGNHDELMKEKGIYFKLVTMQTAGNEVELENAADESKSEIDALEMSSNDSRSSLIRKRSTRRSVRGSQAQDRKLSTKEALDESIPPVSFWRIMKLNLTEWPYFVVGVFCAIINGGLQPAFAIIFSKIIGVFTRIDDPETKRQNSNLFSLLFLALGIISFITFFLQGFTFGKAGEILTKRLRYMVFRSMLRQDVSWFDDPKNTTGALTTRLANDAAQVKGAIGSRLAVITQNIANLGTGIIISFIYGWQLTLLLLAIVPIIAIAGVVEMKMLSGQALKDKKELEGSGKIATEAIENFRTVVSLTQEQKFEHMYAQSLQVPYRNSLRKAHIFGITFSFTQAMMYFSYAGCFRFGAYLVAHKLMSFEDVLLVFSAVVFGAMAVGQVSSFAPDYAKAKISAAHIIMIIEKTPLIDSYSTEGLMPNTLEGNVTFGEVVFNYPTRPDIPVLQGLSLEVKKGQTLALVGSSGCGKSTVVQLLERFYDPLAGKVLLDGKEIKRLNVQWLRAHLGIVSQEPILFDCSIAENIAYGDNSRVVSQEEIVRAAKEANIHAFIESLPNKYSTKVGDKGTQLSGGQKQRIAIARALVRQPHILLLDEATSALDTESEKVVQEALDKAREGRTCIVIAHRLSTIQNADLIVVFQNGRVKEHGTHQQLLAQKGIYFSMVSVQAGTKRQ
Experimental: The study was carried out on mouse T-lymphoma cell lines, including the parental sensitive line (PAR) and its multidrug-resistant subline (MDR) transfected with the human MDR1 (ABCB1) gene. […] The fluorescence activity ratio (FAR), as a measure of the efflux pump modulating properties, was calculated based on the fluorescence data obtained [23, 24, 25]. […] The parental L5178 mouse T-cell lymphoma cells and the L5178Y human ABCB1-transfected subline were cultured in McCoy’s 5A medium (Sigma-Aldrich, St Louis, MO, USA) supplemented with 10% heat-inactivated horse serum (Sigma-Aldrich, St Louis, MO, USA), 200 mM L-glutamine (Sigma-Aldrich, St Louis, MO, USA), and a penicillin-streptomycin (Sigma-Aldrich, St Louis, MO, USA) mixture in concentrations of 100 U/L and 10 mg/L, respectively.
The potency of the tested compounds as inhibitors of the ABCB1 efflux pump was determined using a fluorescence-based detection system, described previously in the literature [23, 26]. […] The parental (PAR) and multidrug-resistant (MDR) mouse T-lymphoma cells were adjusted to a density of 2 × 10^6/mL, re-suspended in serum-free McCoy’s 5A medium, and distributed in 0.5 mL aliquots into Eppendorf centrifuge tubes. […] The fluorescence intensity of the cell population was measured with a Partec CyFlow flow cytometer (Partec, Munster, Germany). […] The mean fluorescence intensity (%) was calculated for the treated MDR and PAR mouse T-lymphoma cells as compared to the untreated cells.

[5] = concentration 20 µM, VER values for assay group 1 / 2

SMILES	IC50 [4] [µM]	FAR Quotient (%) (ABCB1 efflux pump; concentration 2 µM)	FAR (fluorescence activity ratio) (ABCB1 efflux pump; concentration 2 µM)	FAR Quotient (%) (ABCB1 efflux pump; concentration 20 µM)	FAR (fluorescence activity ratio) (ABCB1 efflux pump; [5])	melting point [°C]	IC50 at 24 h [1] [µM]	IC50 at 24 h [2] [µM]	selectivity ratio at 24 h [2]	IC50 [3] [µM]	SI (selectivity index), antiproliferative [4]
NC1=N/C(=C\c2ccc(-c3ccccc3)cc2)C(=O)N1CCN1CCOCC1 [Compound 14]	27.9	6.22	0.814	6.48	0.847		36.9	57.4	0.64	24.9	0.89
Cl.O=C1NC(N2CCOCC2)=N/C1=C\c1ccc(-c2ccccc2)cc1 [Compound 7, (Z)-5-(Biphen-4-ylmethylene)-2-morpholino-3H-imidazol-4(5H)-one hydrochloride]	26.3	7.31	0.955	7.09	0.927	248 to 252	53.5	54.2	0.99	17.6	0.67
Cl.O=C1N=C(N2CCC(N3CCOCC3)CC2)N/C1=C\c1c2ccccc2cc2ccccc12 [Compound 13, (Z)-5-(Anthracen-10-ylmethylene)-2-(4-morpholinopiperidin-1-yl)-imidazol-4(5H)-one hydrochloride]	48.6	6.04	0.968	12.94	2.073	303 to 305	82.2	> 100	≤ 0.82	17.4	0.36
NC1=N/C(=C\c2c3ccccc3cc3ccccc23)C(=O)N1CCCN1CCOCC1 [Compound 19]	43.8	7.94	1.272	10.08	1.615		28.6	> 100	≤ 0.29	14.4	0.33
NC1=N/C(=C\c2ccc(-c3ccccc3)cc2)C(=O)N1CCN1CCOCC1 (as salt: hydrochloride) [Compound 14]						266 to 270					
Cl.NC1=N/C(=C\c2cc3ccccc3c3ccccc23)C(=O)N1CCCN1CCOCC1 [Compound 20, (Z)-5-(Phenanthren-9-ylmethylene)-2-amino-3-(3-morpholinopropyl)-imidazol-4(5H)-one hydrochloride]	17.3	5.59	0.896	7.72	1.237	238 to 240	19.6	24.9	0.79	14.8	0.85
Cl.O=C1N=C(N2CCC(N3CCOCC3)CC2)N/C1=C\c1ccc(-c2ccccc2)cc1 [Compound 8, (Z)-5-(Biphen-4-ylmethylene)-2-(4-morpholinopiperidin-1-yl)-imidazol-4(5H)-one hydrochloride]	26	8.49	1.359	15.04	2.409	267 to 269	24	46.4	0.52	14.8	0.57

Second part, led by results:

IC50 [4] [µM]	FAR Quotient (%) (ABCB1 efflux pump; concentration 2 µM)	FAR (fluorescence activity ratio) (ABCB1 efflux pump; concentration 2 µM)	FAR Quotient (%) (ABCB1 efflux pump; concentration 20 µM)	FAR (fluorescence activity ratio) (ABCB1 efflux pump; [5])	melting point [°C]	SMILES	IC50 at 24 h [1] [µM]	IC50 at 24 h [2] [µM]	selectivity ratio at 24 h [2]	IC50 [3] [µM]	SI (selectivity index), antiproliferative [4]
14.2	5.80	0.929	14.37	2.301	210 to 212	Cl.NC1=N/C(=C\c2ccc(Oc3ccccc3)cc2)C(=O)N1CCCN1CCOCC1 [Compound 17, (Z)-5-(4-Phenoxybenzylidene)-2-amino-3-(3-morpholinopropyl)-imidazol-4(5H)-one hydrochloride]	21.5	23.4	0.92	12.2	0.85
22.4	6.92	1.108	12.44	1.992	289 to 292	Cl.O=C1N=C(N2CCC(N3CCOCC3)CC2)N/C1=C\c1cccc(Oc2ccccc2)c1 [Compound 10, (Z)-5-(3-Phenoxybenzylidene)-2-(4-morpholinopiperidin-1-yl)-imidazol-4(5H)-one hydrochloride]	54	63.8	0.85	26.4	1.18
13.6	6.78	0.887	16.98	2.221	248 to 252	Cl.NC1=N/C(=C\c2ccc(-c3ccccc3)cc2)C(=O)N1CCCN1CCOCC1 [Compound 15, (Z)-5-(Biphen-4-ylmethylene)-2-amino-3-(3-morpholinopropyl)-imidazol-4(5H)-one hydrochloride]	17.5	20.8	0.84	10.3	0.75
12.2	7.09	0.927	18.55	2.426		NC1=N/C(=C\c2cccc(Oc3ccccc3)c2)C(=O)N1CCCN1CCOCC1 [Compound 16]	16	31.3	0.51	11.4	0.94
16.5	5.86	0.766	12.58	1.645	305 to 307	Cl.O=C1N=C(N2CCN(CCN3CCOCC3)CC2)N/C1=C\c1ccc(-c2ccccc2)cc1 [Compound 9, (Z)-5-(Biphen-4-ylmethylene)-2-(4-(2-morpholinoethyl)piperazin-1-yl)-imidazol-4(5H)-one hydrochloride]	12.8	18.1	0.71	7.78	0.47
1.75						COc1cccc2c1C(=O)c1c(O)c3c(c(O)c1C2=O)C[C@@](O)(C(=O)CO)C[C@@H]3O[C@H]1C[C@H](N)[C@H](O)[C@H](C)O1 [DOX, doxorubicin, reference compound]	0.7	2.14	0.33	0.28	0.16
